Assay results published in US4532255A, “Amidine compounds and anticomplement agent comprising same” (Torii & Co., Ltd., priority 1980, dated 1985).

What was measured:
[1] = target: T1, Trypsin (Bos taurus, UniProt P00760); experiment: Anti-trypsin activity (hydrolysis of TAME); format: biochemical; conditions: molar concentration inhibiting 50% of TAME hydrolysis; read-out: Trypsin ID50
T1 sequence (P00760 24-246): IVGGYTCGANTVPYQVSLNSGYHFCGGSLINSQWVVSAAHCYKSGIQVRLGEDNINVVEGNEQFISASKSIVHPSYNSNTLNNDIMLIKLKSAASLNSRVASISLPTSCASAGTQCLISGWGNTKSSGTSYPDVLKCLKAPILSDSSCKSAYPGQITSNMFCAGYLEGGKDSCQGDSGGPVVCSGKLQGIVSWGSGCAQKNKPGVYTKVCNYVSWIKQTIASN
Procedure: (§1) The anti-trypsin, anti-plasmin, anti-kallikrein and anti-thrombin activities were determined according to the method of Muramatsu et al. [M. Muramatsu, T. Onishi, S. Makino, Y. Hayashi and S. Fujii, J. of Biochem., 58, 214 (1965)]. […] The compound No. corresponds to the compound number shown in Examples.

[2] = target: Plasmin (Homo sapiens, UniProt P00747); experiment: Anti-plasmin activity (hydrolysis of TAME); format: biochemical; conditions: molar concentration inhibiting 50% of TAME hydrolysis; read-out: Plasmin ID50
Chain of Plasmin (P00747 581-810 limits assumed, species assumed): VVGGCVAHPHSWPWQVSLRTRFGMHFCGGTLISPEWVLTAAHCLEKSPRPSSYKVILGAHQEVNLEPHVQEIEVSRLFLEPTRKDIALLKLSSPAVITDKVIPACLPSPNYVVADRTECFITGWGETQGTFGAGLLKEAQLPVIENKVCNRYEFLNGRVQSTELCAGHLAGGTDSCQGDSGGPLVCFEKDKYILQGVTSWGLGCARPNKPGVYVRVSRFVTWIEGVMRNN
Chain of Plasmin (P00747 97-580 partner limits assumed, species assumed): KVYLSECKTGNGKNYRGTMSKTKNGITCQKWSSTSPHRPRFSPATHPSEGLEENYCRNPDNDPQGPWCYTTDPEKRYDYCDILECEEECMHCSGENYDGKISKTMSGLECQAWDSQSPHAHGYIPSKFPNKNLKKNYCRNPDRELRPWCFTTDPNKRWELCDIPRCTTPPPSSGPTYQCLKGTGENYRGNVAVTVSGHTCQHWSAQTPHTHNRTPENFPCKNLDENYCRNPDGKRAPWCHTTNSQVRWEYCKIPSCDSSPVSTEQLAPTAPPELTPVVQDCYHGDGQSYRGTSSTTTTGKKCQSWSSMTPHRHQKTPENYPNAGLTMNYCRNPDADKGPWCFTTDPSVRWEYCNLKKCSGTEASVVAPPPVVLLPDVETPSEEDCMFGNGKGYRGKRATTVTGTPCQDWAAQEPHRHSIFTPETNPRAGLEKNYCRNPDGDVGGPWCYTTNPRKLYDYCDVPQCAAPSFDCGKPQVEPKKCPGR
Procedure: as §1

[3] = system: Kallikrein; experiment: Anti-kallikrein activity (hydrolysis of TAME); format: biochemical; conditions: molar concentration inhibiting 50% of TAME hydrolysis; read-out: Kallikrein ID50
Procedure: (§2) The anti-trypsin, anti-plasmin, anti-kallikrein and anti-thrombin activities were determined according to the method of Muramatsu et al. [M. Muramatsu, T. Onishi, S. Makino, Y. Hayashi and S. Fujii, J. of Biochem., 58, 214 (1965)]. The data summarized in Table 1 are expressed in terms of molar concentration (ID50) of the test compound which inhibits 50% of the activity of each enzyme to hydrolyze TAME (tosylalginine methyl ester). The compound No. corresponds to the compound number shown in Examples.

[4] = target: Thrombin (Homo sapiens, UniProt P00734); experiment: biochemical; conditions: for IC50: molar concentration inhibiting 50% of TAME hydrolysis, read-out: Thrombin ID50; for inhibition at 10 µM: at 1×10^-5 M, read-out: Thrombin percentage inhibition
Procedure: as §2

[5] = target: T2, C1r (Homo sapiens, UniProt P00736); experiment: Anti-C1 esterase (C1r) activity (hydrolysis of AAME); format: biochemical; conditions: AAME hydrolysis; read-out: Anti-C1 activity, C1r ID50
T2 sequence (P00736 464-705 limits assumed): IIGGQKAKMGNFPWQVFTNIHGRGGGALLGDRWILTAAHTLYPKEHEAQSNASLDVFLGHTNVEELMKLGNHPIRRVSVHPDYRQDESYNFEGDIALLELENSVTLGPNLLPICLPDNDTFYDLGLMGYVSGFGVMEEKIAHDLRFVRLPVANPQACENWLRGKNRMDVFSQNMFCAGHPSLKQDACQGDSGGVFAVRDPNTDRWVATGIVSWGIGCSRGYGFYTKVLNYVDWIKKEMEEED
T2 sequence (P00736 18-463 partner limits assumed): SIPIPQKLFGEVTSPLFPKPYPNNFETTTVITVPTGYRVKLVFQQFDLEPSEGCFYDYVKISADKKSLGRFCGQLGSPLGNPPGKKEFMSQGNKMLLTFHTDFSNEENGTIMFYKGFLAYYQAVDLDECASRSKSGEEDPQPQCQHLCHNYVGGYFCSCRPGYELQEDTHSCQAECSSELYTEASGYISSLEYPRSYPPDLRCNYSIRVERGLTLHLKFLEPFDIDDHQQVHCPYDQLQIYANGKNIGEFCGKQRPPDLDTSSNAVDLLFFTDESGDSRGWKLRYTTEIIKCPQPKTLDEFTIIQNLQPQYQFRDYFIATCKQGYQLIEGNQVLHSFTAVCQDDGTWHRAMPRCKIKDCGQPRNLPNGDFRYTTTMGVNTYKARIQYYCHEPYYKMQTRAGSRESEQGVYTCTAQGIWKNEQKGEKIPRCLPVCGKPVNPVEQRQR
Procedure: The anti-Cl esterase ([…]) activity was determined according to the method of Okamura et al. [K. Okamura, M. Muramatsu and S. Fujii, Biochem. Biophys.

[6] = target: T3, C1s (Homo sapiens, UniProt P09871); experiment: biochemical; conditions: ATEE hydrolysis; read-out: Anti-C1 activity, C1s ID50
T3 sequence (P09871 438-688 limits assumed): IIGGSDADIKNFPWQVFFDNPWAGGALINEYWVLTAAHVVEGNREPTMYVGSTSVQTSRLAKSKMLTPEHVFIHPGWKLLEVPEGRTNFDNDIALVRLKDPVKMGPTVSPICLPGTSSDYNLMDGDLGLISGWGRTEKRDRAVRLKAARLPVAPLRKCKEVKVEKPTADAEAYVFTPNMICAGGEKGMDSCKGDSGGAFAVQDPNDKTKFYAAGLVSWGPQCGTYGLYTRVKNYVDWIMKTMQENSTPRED
T3 sequence (P09871 16-437 partner limits assumed): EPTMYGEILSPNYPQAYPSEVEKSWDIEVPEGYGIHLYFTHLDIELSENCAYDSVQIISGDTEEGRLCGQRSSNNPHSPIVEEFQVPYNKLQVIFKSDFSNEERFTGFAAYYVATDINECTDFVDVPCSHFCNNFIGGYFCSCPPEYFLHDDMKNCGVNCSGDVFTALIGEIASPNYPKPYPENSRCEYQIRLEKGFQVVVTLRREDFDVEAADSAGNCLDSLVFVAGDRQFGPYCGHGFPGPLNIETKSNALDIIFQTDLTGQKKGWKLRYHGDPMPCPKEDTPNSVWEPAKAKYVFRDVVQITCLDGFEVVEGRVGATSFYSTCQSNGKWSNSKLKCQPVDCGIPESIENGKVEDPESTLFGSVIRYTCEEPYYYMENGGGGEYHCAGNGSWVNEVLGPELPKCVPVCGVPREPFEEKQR
Procedure: The anti-Cl esterase (Clr, Cls) activity was determined according to the method of Okamura et al. [K. Okamura, M. Muramatsu and S. Fujii, Biochem. Biophys. […] The figures in Table 2 have the following meanings:
Cls: Molar concentration of the test compound which inhibits 50% of the ability of Cls to hydrolyse ATEE (acetyltyrosin ethyl ester).

[7] = system: complement mediated hemolysis; experiment: Inhibition of complement mediated hemolysis; format: cell-based
Procedure: The principle of this method is based on the fact that hemolysis is caused by the activation of complement, when the latter is added to a complex (immune complex) of erythrocytes and the antibody thereof. The degree of hemolysis varies in proportion to the amount of complement added. Therefore, when a known amount of complement admixed with a C1 esterase inhibitor is used, the hemolysis must be suppressed in proportion to the inhibitory activity.

Row | SMILES | IC50 [1] | IC50 [2] | IC50 [3] | IC50 [4] | IC50 [5] | IC50 [6] | Inhibition of complement mediated hemolysis (%) ([7]; 1 × 10^-4) | Inhibition of complement mediated hemolysis (%) ([7]; 1 × 10^-5) | Inhibition of complement mediated hemolysis (%) ([7]; 1 × 10^-6) | Inhibition of complement mediated hemolysis (%) ([7]; 1 × 10^-7) | inhibition at 10 µM [4]
1 | CN(C)c1ccc(C(=O)Oc2ccc3cc(C(=N)N)ccc3c2)cc1 [Compound 24, 6-amidino-2-naphthyl 4-dimethylaminobenzoate] | 0.3 µM | 20 µM | 50 µM | 60 µM |  |  |  |  |  |  | 
2 | CC(=O)Nc1ccc(C(=O)Oc2ccc3cc(C(=N)N)ccc3c2)cc1 [Compound 25, 6-amidino-2-naphthyl 4-acetylaminobenzoate] |  |  | 100 µM | 60 µM | 0.7 µM | 0.4 µM | 64% | 26% | 1% | 0% | 
3 | N=C(N)c1ccc2cc(OC(=O)Cc3ccc(Cl)cc3)ccc2c1 [Compound 44] |  |  |  |  | > 10 µM | > 10 µM | 89% | 21% | 0% | 18% | 
4 | Cc1ccc(CCC(=O)Oc2ccc3cc(C(=N)N)ccc3c2)cc1 [Compound 48] | 5 µM | 2 µM | > 10 µM |  |  |  |  |  |  |  | 43%
5 | CC(=O)Oc1ccc(CCC(=O)Oc2ccc3cc(C(=N)N)ccc3c2)cc1 [Compound 50] |  |  |  |  |  |  | 49% | 16% | 1% | 11% | 
6 | N=C(N)c1ccc2cc(OC(=O)CCCc3ccccc3)ccc2c1 [Compound 54, 6-amidino-2-naphthyl 4-phenylbutyrate] |  |  |  |  | > 10 µM | > 10 µM | 12% | 10% | 10% | 4% | 
7 | Cc1ccc(C=CC(=O)Oc2ccc3cc(C(=N)N)ccc3c2)cc1 [Compound 58] | 2 µM | 0.5 µM | > 10 µM |  |  |  |  |  |  |  | 22%
8 | COc1ccc(C=CC(=O)Oc2ccc3cc(C(=N)N)ccc3c2)cc1OC [Compound 59] | 0.1 µM | 0.6 µM | 1 µM | 6 µM |  |  |  |  |  |  | 
9 | N=C(N)c1ccc2cc(OC(=O)C=Cc3ccc([N+](=O)[O-])cc3)ccc2c1 [Compound 62, 6-amidino-2-naphthyl 4-nitrocinnamate] | 3 µM | 2 µM | > 10 µM |  |  |  |  |  |  |  | 24%
10 | N=C(N)c1ccc2cc(OC(=O)COc3ccc(Cl)cc3Cl)ccc2c1 [Compound 70] |  |  |  |  | > 10 µM | > 10 µM | 26% | 1% | 0% | 2% | 
